From ChEMBL document CHEMBL4507327 (2021)
Each block holds one compound with its values, some of them ahead of it.

Columns and labels:
[1] = target: Epidermal growth factor receptor (Homo sapiens, UniProt P00533); assay: Inhibition of Epidermal Growth Factor (EGF) at 10 µM in the Eurofins-Panlabs radioligand binding assay (Eurofins_assay_225510); settings: Compound concentration 10.0 uM
Rattus norvegicus = organism: Rattus norvegicus; assay: Inhibition of Rolipram at 10 µM in the Eurofins-Panlabs radioligand binding assay (Eurofins_assay_268811); assay type: protein assay; parameters: ligand concentration 1.8 nM; settings: Compound concentration 10.0 uM
[2] = target: BMP-2-inducible protein kinase (Homo sapiens, UniProt Q9NSY1); assay: BIKE(BM2KLGY1) Takeda global kinase panel
[3] = target: Bone morphogenetic protein receptor type-2 (Homo sapiens, UniProt Q13873); assay: BMPR2(BMR2LGN1) Takeda global kinase panel
[4] = target: Cyclin-dependent kinase 16 (Homo sapiens, UniProt Q00536); assay: PCTAIRE1(CD16SGS1) Takeda global kinase panel
[5] = target: Serine/threonine-protein kinase Chk2 (Homo sapiens, UniProt O96017); assay: CHK2(CHE2LGY1) Takeda global kinase panel
Sequence of Serine/threonine-protein kinase Chk2 (O96017 whole entry, canonical isoform): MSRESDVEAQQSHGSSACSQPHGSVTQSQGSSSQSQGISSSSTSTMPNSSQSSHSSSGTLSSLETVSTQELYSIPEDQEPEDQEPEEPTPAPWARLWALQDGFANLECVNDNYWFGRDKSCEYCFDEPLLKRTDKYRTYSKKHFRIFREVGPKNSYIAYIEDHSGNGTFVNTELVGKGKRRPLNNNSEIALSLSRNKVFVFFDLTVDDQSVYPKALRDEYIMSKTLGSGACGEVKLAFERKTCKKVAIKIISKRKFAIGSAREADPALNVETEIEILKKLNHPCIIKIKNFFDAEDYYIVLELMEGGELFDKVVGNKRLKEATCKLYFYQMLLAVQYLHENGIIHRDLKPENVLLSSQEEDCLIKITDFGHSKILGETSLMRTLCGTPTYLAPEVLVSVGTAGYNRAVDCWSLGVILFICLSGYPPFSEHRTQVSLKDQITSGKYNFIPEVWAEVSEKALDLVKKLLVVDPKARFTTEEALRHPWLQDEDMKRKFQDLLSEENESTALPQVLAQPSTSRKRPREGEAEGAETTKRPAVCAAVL

[6] = target: Casein kinase I isoform delta (Homo sapiens, UniProt P48730); assay: CK1delta(CS1DLGI1) Takeda global kinase panel
Sequence of Casein kinase I isoform delta (P48730 whole entry, canonical isoform): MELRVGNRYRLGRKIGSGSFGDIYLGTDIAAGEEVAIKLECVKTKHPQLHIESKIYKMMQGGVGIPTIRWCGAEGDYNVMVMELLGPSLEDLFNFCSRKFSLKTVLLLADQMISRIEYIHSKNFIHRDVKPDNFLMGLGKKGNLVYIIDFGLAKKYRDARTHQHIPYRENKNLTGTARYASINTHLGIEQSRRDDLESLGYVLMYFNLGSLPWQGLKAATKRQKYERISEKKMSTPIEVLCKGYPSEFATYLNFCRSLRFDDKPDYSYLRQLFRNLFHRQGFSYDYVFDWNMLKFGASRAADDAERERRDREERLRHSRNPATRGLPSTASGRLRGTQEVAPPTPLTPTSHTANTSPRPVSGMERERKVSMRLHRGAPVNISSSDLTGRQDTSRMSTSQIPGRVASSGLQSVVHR

[7] = target: Casein kinase I isoform gamma-2 (Homo sapiens, UniProt P78368); assay: CK1gamma2(C1G2LGI1) Takeda global kinase panel
Sequence of Casein kinase I isoform gamma-2 (P78368 whole entry, canonical isoform): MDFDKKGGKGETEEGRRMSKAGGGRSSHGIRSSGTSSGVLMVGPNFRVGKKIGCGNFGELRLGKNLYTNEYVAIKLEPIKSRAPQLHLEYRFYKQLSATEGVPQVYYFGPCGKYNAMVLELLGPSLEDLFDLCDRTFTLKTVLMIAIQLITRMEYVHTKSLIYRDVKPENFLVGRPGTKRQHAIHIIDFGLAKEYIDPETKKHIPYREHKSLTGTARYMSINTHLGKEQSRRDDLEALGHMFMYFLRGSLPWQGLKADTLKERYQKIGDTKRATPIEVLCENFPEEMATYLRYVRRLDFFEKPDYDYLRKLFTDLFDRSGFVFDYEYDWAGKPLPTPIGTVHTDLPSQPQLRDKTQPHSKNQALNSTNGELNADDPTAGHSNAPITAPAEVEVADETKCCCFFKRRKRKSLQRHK

Ephrin type-A receptor 4 = Ephrin type-A receptor 4 (Homo sapiens, UniProt P54764); assay: EphA4(EPA4LGF1) Takeda global kinase panel
Sequence of Ephrin type-A receptor 4 (P54764 whole entry): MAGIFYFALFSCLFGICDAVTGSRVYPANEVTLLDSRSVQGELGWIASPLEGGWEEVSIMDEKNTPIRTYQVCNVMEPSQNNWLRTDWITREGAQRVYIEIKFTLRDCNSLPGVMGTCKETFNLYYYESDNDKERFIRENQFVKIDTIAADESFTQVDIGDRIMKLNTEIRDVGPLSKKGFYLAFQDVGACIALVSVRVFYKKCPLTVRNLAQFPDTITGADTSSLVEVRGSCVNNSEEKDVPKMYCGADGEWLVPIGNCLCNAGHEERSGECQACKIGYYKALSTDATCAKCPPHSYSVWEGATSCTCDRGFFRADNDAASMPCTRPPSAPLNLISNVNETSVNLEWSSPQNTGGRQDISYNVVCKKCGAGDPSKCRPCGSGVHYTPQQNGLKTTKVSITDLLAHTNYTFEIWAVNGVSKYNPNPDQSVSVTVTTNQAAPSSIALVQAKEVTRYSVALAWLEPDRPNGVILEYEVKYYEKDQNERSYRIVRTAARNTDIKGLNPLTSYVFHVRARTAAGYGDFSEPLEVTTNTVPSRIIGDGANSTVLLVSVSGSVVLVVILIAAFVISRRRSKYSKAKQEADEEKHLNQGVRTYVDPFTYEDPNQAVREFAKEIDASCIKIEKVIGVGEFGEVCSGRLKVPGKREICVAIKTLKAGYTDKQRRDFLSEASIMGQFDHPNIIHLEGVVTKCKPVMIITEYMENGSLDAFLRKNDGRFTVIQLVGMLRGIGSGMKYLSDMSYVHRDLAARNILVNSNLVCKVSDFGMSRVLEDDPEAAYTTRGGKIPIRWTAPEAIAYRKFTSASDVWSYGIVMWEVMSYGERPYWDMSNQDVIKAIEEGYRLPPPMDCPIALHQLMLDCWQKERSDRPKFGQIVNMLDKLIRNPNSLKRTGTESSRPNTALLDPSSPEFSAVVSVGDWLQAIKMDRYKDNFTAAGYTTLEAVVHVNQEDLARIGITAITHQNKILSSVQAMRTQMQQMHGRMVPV

Ephrin type-B receptor 3 = Ephrin type-B receptor 3 (Homo sapiens, UniProt P54753); assay: EphB3(EPB3LGRJ) Takeda global kinase panel
[8] = target: Tyrosine-protein kinase Fes/Fps (Homo sapiens, UniProt P07332); assay: Fes(FES1LHY1) Takeda global kinase panel
[9] = target: Fibroblast growth factor receptor 4 (Homo sapiens, UniProt P22455); assay: FGFR4(FGF4LGF1) Takeda global kinase panel
Sequence of Fibroblast growth factor receptor 4 (P22455 whole entry): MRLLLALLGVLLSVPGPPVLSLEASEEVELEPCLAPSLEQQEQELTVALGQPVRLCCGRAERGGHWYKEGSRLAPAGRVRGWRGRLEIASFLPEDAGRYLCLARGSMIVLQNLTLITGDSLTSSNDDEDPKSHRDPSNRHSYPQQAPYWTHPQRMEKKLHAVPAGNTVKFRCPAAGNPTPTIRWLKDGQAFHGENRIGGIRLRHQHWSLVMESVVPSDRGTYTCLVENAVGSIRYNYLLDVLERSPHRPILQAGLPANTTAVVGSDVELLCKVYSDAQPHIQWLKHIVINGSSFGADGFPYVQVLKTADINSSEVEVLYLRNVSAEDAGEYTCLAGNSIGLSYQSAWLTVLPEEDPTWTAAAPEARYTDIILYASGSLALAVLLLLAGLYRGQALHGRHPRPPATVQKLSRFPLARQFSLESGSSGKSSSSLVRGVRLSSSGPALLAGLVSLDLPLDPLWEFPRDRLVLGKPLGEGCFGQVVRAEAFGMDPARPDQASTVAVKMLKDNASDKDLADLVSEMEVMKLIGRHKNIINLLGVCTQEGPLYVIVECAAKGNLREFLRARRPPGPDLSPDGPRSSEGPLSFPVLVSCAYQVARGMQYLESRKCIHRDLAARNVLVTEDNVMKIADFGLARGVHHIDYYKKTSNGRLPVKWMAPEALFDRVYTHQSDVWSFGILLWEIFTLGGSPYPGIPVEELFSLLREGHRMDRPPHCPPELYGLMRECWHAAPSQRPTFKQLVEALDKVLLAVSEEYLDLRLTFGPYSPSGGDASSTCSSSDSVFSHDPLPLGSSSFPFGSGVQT

[10] = target: Receptor-type tyrosine-protein kinase FLT3 (Homo sapiens, UniProt P36888); assay: FLT3(FLT3MGE1) Takeda global kinase panel
[11] = target: Cyclin-G-associated kinase (Homo sapiens, UniProt O14976); assay: GAK(GAK1PGF1) Takeda global kinase panel
[12] = target: G protein-coupled receptor kinase 5 (Homo sapiens, UniProt P34947); assay: GRK5(GRK5LGP1) Takeda global kinase panel
[13] = target: Homeodomain-interacting protein kinase 2 (Homo sapiens, UniProt Q9H2X6); assay: HIPK2(HIP2LGY1) Takeda global kinase panel
[14] = target: Mast/stem cell growth factor receptor Kit (Homo sapiens, UniProt P10721); assay: Kit(KIT1MGC1) Takeda global kinase panel
Sequence of Mast/stem cell growth factor receptor Kit (P10721 whole entry): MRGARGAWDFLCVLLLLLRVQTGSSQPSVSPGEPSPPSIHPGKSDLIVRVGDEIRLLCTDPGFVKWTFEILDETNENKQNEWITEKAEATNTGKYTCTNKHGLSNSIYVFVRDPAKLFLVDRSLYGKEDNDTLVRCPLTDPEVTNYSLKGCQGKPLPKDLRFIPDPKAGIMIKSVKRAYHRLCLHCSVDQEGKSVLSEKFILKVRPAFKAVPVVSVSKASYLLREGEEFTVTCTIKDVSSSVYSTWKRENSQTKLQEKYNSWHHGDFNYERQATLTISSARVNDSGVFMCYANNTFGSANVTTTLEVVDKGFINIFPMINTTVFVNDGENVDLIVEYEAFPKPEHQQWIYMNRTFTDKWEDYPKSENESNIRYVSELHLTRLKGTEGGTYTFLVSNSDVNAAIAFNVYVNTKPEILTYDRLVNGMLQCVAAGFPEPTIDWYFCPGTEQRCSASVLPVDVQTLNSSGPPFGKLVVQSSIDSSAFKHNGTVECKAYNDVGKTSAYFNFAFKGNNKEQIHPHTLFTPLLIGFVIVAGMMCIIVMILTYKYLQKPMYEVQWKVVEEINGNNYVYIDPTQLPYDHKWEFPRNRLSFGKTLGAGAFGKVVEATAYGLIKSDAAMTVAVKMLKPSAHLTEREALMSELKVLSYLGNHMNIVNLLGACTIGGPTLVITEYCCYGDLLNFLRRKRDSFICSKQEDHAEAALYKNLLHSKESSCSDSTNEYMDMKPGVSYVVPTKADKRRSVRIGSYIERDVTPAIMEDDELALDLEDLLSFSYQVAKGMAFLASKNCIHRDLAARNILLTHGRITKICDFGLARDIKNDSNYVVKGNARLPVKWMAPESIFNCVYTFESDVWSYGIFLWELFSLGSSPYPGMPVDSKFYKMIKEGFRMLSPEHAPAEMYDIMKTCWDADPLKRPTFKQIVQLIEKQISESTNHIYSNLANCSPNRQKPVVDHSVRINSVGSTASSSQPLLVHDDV

[15] = target: Leukocyte tyrosine kinase receptor (Homo sapiens, UniProt P29376); assay: LTK(LTK1LGF1) Takeda global kinase panel
[16] = target: Mitogen-activated protein kinase 13 (Homo sapiens, UniProt O15264); assay: p38delta(MP13LGP1) Takeda global kinase panel
[17] = target: Mitogen-activated protein kinase 15 (Homo sapiens, UniProt Q8TD08); assay: ERK7(MP15LGY1) Takeda global kinase panel
[18] = target: Mitogen-activated protein kinase 9 (Homo sapiens, UniProt P45984); assay: JNK2(MAP9LGF1) Takeda global kinase panel
[19] = target: Tyrosine-protein kinase Mer (Homo sapiens, UniProt Q12866); assay: Mer(MERTLGF1) Takeda global kinase panel
[20] = target: Serine/threonine-protein kinase 26 (Homo sapiens, UniProt Q9P289); assay: MST4(MST4LGC1) Takeda global kinase panel
[21] = target: High affinity nerve growth factor receptor (Homo sapiens, UniProt P04629); assay: TRKA(NTR1LGN1) Takeda global kinase panel
[22] = target: Serine/threonine-protein kinase pim-3 (Homo sapiens, UniProt Q86V86); assay: Pim3(PIM3LGP1) Takeda global kinase panel
[23] = target: Protein kinase C iota type (Homo sapiens, UniProt P41743); assay: PKCiota(PRKILGRD) Takeda global kinase panel
[24] = target: Protein kinase C theta type (Homo sapiens, UniProt Q04759); assay: PKCtheta(PRKQLGM5) Takeda global kinase panel
[25] = target: Serine/threonine-protein kinase SBK1 (Homo sapiens, UniProt Q52WX2); assay: SBK(SBK1LGY1) Takeda global kinase panel
[26] = target: Serine/threonine-protein kinase 24 (Homo sapiens, UniProt Q9Y6E0); assay: MST3(ST24LGC1) Takeda global kinase panel
[27] = target: Serine/threonine-protein kinase 33 (Homo sapiens, UniProt Q9BYT3); assay: STK33(ST33LGF1) Takeda global kinase panel
[28] = target: Serine/threonine-protein kinase 4 (Homo sapiens, UniProt Q13043); assay: MST1(STK4LGF1) Takeda global kinase panel
[29] = target: Serine/threonine-protein kinase TAO2 (Homo sapiens, UniProt Q9UL54); assay: TAO2(TAO2LGF1) Takeda global kinase panel
[30] = target: Serine/threonine-protein kinase ULK2 (Homo sapiens, UniProt Q8IYT8); assay: ULK2(ULK2LGY1) Takeda global kinase panel
[31] = target: Serine/threonine-protein kinase ULK3 (Homo sapiens, UniProt Q6PHR2); assay: ULK3(ULK3LGF1) Takeda global kinase panel
[32] = target: Wee1-like protein kinase 2 (Homo sapiens, UniProt P0C1S8); assay: Wee1B(WE1BLGF1) Takeda global kinase panel
Sequence of Wee1-like protein kinase 2 (P0C1S8 whole entry): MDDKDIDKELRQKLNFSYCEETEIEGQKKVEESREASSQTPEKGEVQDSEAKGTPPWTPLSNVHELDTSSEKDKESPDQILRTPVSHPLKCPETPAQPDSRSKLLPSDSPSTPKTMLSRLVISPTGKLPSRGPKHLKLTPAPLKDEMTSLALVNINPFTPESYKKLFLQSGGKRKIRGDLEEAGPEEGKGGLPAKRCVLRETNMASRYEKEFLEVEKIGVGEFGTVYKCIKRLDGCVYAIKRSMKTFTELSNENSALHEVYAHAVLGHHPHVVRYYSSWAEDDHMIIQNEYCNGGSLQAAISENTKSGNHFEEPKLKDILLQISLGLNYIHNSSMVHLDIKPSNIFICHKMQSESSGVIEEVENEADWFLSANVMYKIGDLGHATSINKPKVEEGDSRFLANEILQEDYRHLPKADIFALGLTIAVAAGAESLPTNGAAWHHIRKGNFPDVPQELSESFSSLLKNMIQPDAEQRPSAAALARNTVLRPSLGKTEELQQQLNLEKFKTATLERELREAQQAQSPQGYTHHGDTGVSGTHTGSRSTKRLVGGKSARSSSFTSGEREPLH

[33] = target: Cyclin-dependent kinase 11A (Homo sapiens, UniProt Q9UQ88); assay: CDK11A(C11ALGS1) Takeda global kinase panel
[34] = target: Estrogen receptor (Homo sapiens) (UniProt P03372); settings: Compound concentration 10.0 uM
[35] = target: Histamine H3 receptor (Homo sapiens) (UniProt Q9Y5N1); settings: Compound concentration 10.0 uM
[36] = target: T1, 5-hydroxytryptamine receptor 1A (Homo sapiens) (UniProt P08908); settings: Compound concentration 10.0 uM
T1 sequence (whole entry): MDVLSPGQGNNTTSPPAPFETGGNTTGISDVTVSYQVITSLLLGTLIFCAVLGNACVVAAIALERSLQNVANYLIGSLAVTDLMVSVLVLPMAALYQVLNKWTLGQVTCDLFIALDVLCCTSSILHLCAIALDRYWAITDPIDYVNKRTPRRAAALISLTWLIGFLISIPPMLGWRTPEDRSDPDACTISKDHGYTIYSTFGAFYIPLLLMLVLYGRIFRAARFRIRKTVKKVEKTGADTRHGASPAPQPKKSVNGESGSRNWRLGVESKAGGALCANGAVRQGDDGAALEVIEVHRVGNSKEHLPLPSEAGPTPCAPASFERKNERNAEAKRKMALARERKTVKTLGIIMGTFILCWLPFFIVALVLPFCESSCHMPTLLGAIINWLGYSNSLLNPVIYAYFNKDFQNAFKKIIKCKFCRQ

[37] = target: B1 bradykinin receptor (Homo sapiens) (UniProt P46663); settings: Compound concentration 10.0 uM
Homo sapiens = organism: Homo sapiens; settings: Compound concentration 10.0 uM

Structure (SMILES): CN1C(=O)[C@@H](N2CCc3cn(Cc4ccccc4)nc3C2=O)COc2ccccc21 [TP-030-1]
inhibition [1]: -3%
inhibition (Rattus norvegicus): 0%
IC50 [2]: 1000 nM
IC50 [3]: 1000 nM
IC50 [4]: 1000 nM
IC50 [5]: 1000 nM
IC50 [6]: 1000 nM
IC50 [7]: 1000 nM
IC50 (Ephrin type-A receptor 4): 1000 nM
IC50 (Ephrin type-B receptor 3): 1000 nM
IC50 [8]: 1000 nM
IC50 [9]: 1000 nM
IC50 [10]: 1000 nM
IC50 [11]: 1000 nM
IC50 [12]: 1000 nM
IC50 [13]: 1000 nM
IC50 [14]: 1000 nM
IC50 [15]: 1000 nM
IC50 [16]: 1000 nM
IC50 [17]: 1000 nM
IC50 [18]: 1000 nM
IC50 [19]: 1000 nM
IC50 [20]: 1000 nM
IC50 [21]: 1000 nM
IC50 [22]: 1000 nM
IC50 [23]: 1000 nM
IC50 [24]: 1000 nM
IC50 [25]: 1000 nM
IC50 [26]: 1000 nM
IC50 [27]: 1000 nM
IC50 [28]: 1000 nM
IC50 [29]: 1000 nM
IC50 [30]: 1000 nM
IC50 [31]: 1000 nM
IC50 [32]: 1000 nM
IC50 [33]: 1000 nM
inhibition [34]: 36%
inhibition [35]: 4%
inhibition [36]: -6%
inhibition [37]: 2%
inhibition (Homo sapiens): 21%

inhibition [1]: 4%
inhibition (Rattus norvegicus): 1%
IC50 [2]: 1000 nM
IC50 [3]: 1000 nM
IC50 [4]: 1000 nM
IC50 [5]: 1000 nM
IC50 [6]: 1000 nM
IC50 [7]: 1000 nM
IC50 (Ephrin type-A receptor 4): 1000 nM
IC50 (Ephrin type-B receptor 3): 1000 nM
IC50 [8]: 1000 nM
IC50 [9]: 1000 nM
IC50 [10]: 1000 nM
IC50 [11]: 1000 nM
IC50 [12]: 1000 nM
IC50 [13]: 1000 nM
IC50 [14]: 1000 nM
IC50 [15]: 1000 nM
IC50 [16]: 1000 nM
IC50 [18]: 1000 nM
IC50 [19]: 1000 nM
IC50 [20]: 1000 nM
IC50 [21]: 1000 nM
IC50 [22]: 1000 nM
IC50 [23]: 1000 nM
IC50 [24]: 1000 nM
IC50 [25]: 1000 nM
IC50 [26]: 1000 nM
IC50 [27]: 1000 nM
IC50 [28]: 1000 nM
IC50 [29]: 1000 nM
IC50 [30]: 1000 nM
IC50 [31]: 1000 nM
IC50 [32]: 1000 nM
IC50 [33]: 1000 nM
inhibition [34]: 5%
inhibition [35]: -5%
inhibition [36]: 3%
inhibition [37]: 9%
inhibition (Homo sapiens): 2%
Structure (SMILES): CN1C(=O)[C@@H](N2CCc3cn(CC4CCS(=O)(=O)CC4)nc3C2=O)COc2ccccc21 [TP-030n]
IC50 [17]: 1000 nM
